Measurements: ChEMBL document CHEMBL5385865, “Discovery and optimization of 2-(trifluoromethyl)benzimidazole derivatives as novel ferroptosis inducers in vitro and in vivo” (Eur J Med Chem, 2023)
Activity calls are given as the source filed them. The calls are words filed in the database; no cut-off is given here.

Assays:
HepG2 [1] = assay: Inhibition of cell proliferation in human HepG2 cells xenografted in BALB/c nude mouse at 15 to 30 mg/kg, ip administered every other day for 21 days by Ki67 staining based IHC analysis; type: functional, organism-based; conditions: dose 15-30 mg/kg, time 21.0 day
HT-1080 [2] = assay: Lethality in human HT-1080 cells assessed as inhibition of cell viability incubated for 24 hrs by MTT assay; type: functional, cell-based; conditions: HT-1080, 24 h
HT-1080 [3] = assay: Induction of ferroptosis in human HT-1080 cells assessed as increase in mitochondrial membrane density at 5 uM incubated for 24 hrs by TEM analysis; type: functional, cell-based
[4] = Metabolic stability in rat liver microsomes assessed as intrinsic clearance measured per mg protein at 1 uM in presence of NADPH by LC-MS analysis; type: ADME, Microsome; conditions: read-out: CLH
HepG2 [5] = assay: Antitumor activity against human HepG2 cells xenografted in BALB/c nude mouse assessed as tumor weight reduction administered intraperitoneally every other day for 21 days; type: functional; conditions: dose 15-30 mg/kg, route ip, time 21.0 day
HT-1080 [6] = assay: Induction of ferroptosis in human HT-1080 cells assessed as cell death at 10 uM incubated for 24 hrs in presence of Fer-1 by MTT assay; type: functional, cell-based
HT-1080 [7] = assay: Induction of ferroptosis in human HT-1080 cells assessed as cell death at 10 uM incubated for 24 hrs in presence of DFO by MTT assay; type: functional, cell-based
HT-1080 [8] = assay: Induction of ferroptosis in human HT-1080 cells assessed as cell death incubated for 24 hrs by morphology based microscopy; type: functional; conditions: dose 0.5-5 µM
HT-1080 [9] = assay: Induction of ferroptosis in human HT-1080 cells assessed as cell death at 5 uM incubated for 24 hrs in presence of Fer-1 by morphology based microscopy; type: functional
HT-1080 [10] = assay: Induction of ferroptosis in human HT-1080 cells assessed as cell death at 5 uM incubated for 24 hrs in presence of DFO by morphology based microscopy; type: functional
HT-1080 [11] = assay: Induction of ferroptosis in human HT-1080 cells assessed as cell death at 5 uM incubated for 6 hrs in presence of ferric citrate by fluorescent microscopy; type: functional, cell-based
HT-1080 [12] = assay: Induction of ferroptosis in human HT-1080 cells assessed as increase in lipid ROS accumulation at 5 uM incubated for 10 hrs by BODIPY-C11 probe based confocal laser scanning microscopy; type: functional, cell-based
HT-1080 [13] = assay: Induction of ferroptosis in human HT-1080 cells assessed as increase in lipid ROS accumulation at 0.5 to 5 uM incubated for 10 hrs by flow cytometry; type: functional, cell-based; conditions: dose 0.5-5 µM
HT-1080 [14] = assay: Induction of ferroptosis in human HT-1080 cells assessed as increase in cytosolic ROS accumulation incubated for 10 hrs by H2DCFDA probe based flow cytometry; type: functional, cell-based; conditions: dose 0.5-5 µM
HT-1080 [15] = assay: Induction of ferroptosis in human HT-1080 cells assessed as increase in cytosolic ROS accumulation at 5 uM incubated for 10 hrs in presence of Fer-1 by H2DCFDA probe based flow cytometry; type: functional, cell-based
HT-1080 [16] = assay: Induction of ferroptosis in human HT-1080 cells assessed as decrease in GSH level incubated for 12 hrs by DTNB method; type: functional, cell-based; conditions: dose 0.5-5 µM
HT-1080 [17] = assay: Induction of ferroptosis in human HT-1080 cells assessed as cell death at 5 uM incubated for 24 hrs in presence of beta-mercaptoethanol by MTT assay; type: functional, cell-based
HepG2 [18] = assay: Lethality in human HepG2 cells assessed as inhibition of cell viability incubated for 24 hrs by MTT assay; type: functional, cell-based; conditions: HepG2, 24 h
MDA-MB-231 = assay: Lethality in human MDA-MB-231 cells assessed as decrease in cell viability at 10 uM incubated for 48 hrs by MTT assay; type: functional, cell-based
HepG2 [19] = assay: Lethality in human HepG2 cells assessed as decrease in cell viability at 10 uM incubated for 48 hrs by MTT assay; type: functional, cell-based
A-375 = assay: Lethality in human A-375 cells assessed as decrease in cell viability at 10 uM incubated for 48 hrs by MTT assay; type: functional, cell-based
DU-145 [20] = assay: Lethality in human DU-145 cells assessed as decrease in cell viability at 10 uM incubated for 48 hrs in presence of Fer-1 by MTT assay; type: functional, cell-based
786-0 = assay: Lethality in human 786-0 cells assessed as decrease in cell viability at 10 uM incubated for 48 hrs in presence of DFO by MTT assay; type: functional, cell-based
HeLa = assay: Lethality in human HeLa cells assessed as decrease in cell viability at 10 uM incubated for 48 hrs in presence of DFO by MTT assay; type: functional, cell-based
DU-145 [21] = assay: Lethality in human DU-145 cells assessed as decrease in cell viability at 10 uM incubated for 48 hrs in presence of DFO by MTT assay; type: functional, cell-based
[22] = Toxicity in human NCM460 cells upto 20 uM incubated for 48 hrs by MTT assay; type: cell-based; conditions: ncm460, 48 h
HepG2 [23] = assay: Antitumor activity against human HepG2 cells xenografted in BALB/c nude mouse assessed as tumor growth inhibition at 15 mg/kg, ip administered every other day for 21 days by electronic caliper analysis relative to control; type: functional; conditions: HepG2, 504 h, time 21 day, read-out: TGI
[24] = Toxicity in BALB/c nude mouse xenografted with human HepG2 cells assessed as effect on serum ALT level at 15 to 30 mg/kg, ip administered every other day for 21 days; type: organism-based; conditions: in vivo, 504 h, dose 15-30 mg/kg, time 21 day
[25] = Toxicity in BALB/c nude mouse xenografted with human HepG2 cells assessed as effect on serum ALP level at 15 to 30 mg/kg, ip administered every other day for 21 days; type: organism-based; conditions: in vivo, 504 h, dose 15-30 mg/kg, time 21 day
[26] = Toxicity in BALB/c nude mouse xenografted with human HepG2 cells assessed as effect on serum TBIL level at 15 to 30 mg/kg, ip administered every other day for 21 days; type: organism-based; conditions: in vivo, 504 h, dose 15-30 mg/kg, time 21 day
[27] = Toxicity in BALB/c nude mouse xenografted with human HepG2 cells assessed as effect on serum UREA level at 15 to 30 mg/kg, ip administered every other day for 21 days; type: organism-based; conditions: in vivo, 504 h, dose 15-30 mg/kg, time 21 day
[28] = Toxicity in BALB/c nude mouse xenografted with human HepG2 cells assessed as effect on serum CREA level at 15 to 30 mg/kg, ip administered every other day for 21 days; type: organism-based; conditions: in vivo, 504 h, dose 15-30 mg/kg, time 21 day
[29] = Toxicity in BALB/c nude mouse xenografted with human HepG2 cells assessed as effect on serum LDH level at 15 to 30 mg/kg, ip administered every other day for 21 days; type: organism-based; conditions: in vivo, 504 h, dose 15-30 mg/kg, time 21 day
[30] = Toxicity in BALB/c nude mouse xenografted with human HepG2 cells assessed as histological change in spleen at 15 to 30 mg/kg, ip administered every other day for 21 days by H and E staining based analysis; type: organism-based; conditions: in vivo, 504 h, dose 15-30 mg/kg, time 21 day
[31] = Toxicity in BALB/c nude mouse xenografted with human HepG2 cells assessed as histological change in lung at 15 to 30 mg/kg, ip administered every other day for 21 days by H and E staining based analysis; type: organism-based; conditions: in vivo, 504 h, dose 15-30 mg/kg, time 21 day
HepG2 [32] = assay: Induction of ferroptosis in human HepG2 cells xenografted in BALB/c nude mouse assessed as increase in MDA level administered intraperitoneally every other day for 21 days; type: functional; conditions: dose 15-30 mg/kg, route ip, time 21.0 day

CN(C)S(=O)(=O)c1ccc(N2CCC(Cn3c(C(F)(F)F)nc4ccccc43)CC2)cc1
inhibition (HepG2 [1]): Active | IC50 (HT-1080 [2]): 1260 nM | Activity (HT-1080 [3]): Active | microsomal CLint at 1 µM [4]: 133 µL/min/mg | Activity (HepG2 [5]): Dose-Dependent Effect | Activity (HT-1080 [6]): inactive | Activity (HT-1080 [7]): inactive | Activity (HT-1080 [8]): Dose-Dependent Effect | Activity (HT-1080 [9]): inactive | Activity (HT-1080 [10]): inactive | Activity (HT-1080 [11]): Active | Activity (HT-1080 [12]): Active | Activity (HT-1080 [13]): Active | Activity (HT-1080 [14]): Dose-Dependent Effect | Activity (HT-1080 [15]): inactive | Activity (HT-1080 [16]): Dose-Dependent Effect | Activity (HT-1080 [17]): inactive | IC50 (HepG2 [18]): 1330 nM | Activity (MDA-MB-231): Active | Activity (HepG2 [19]): Active | Activity (A-375): Active | Activity (DU-145 [20]): inactive | Activity (786-0): inactive | Activity (HeLa): inactive | Activity (DU-145 [21]): inactive | Activity [22]: Non-Toxic | inhibition in vivo at 15 mg/kg (HepG2 [23]): 47.6% | Activity [24]: Non-Toxic | Activity [25]: Non-Toxic | Activity [26]: Non-Toxic | Activity [27]: Non-Toxic | Activity [28]: Non-Toxic | Activity [29]: Non-Toxic | Activity [30]: Non-Toxic | Activity [31]: Non-Toxic | Activity (HepG2 [32]): Dose-Dependent Effect
